Measurements published in the supplement of paper PMC11061612.

Assays:
Test in all cases: Bliss excess, mean over the matrix (fraction); higher = more synergy
[1] = test system: KYAE-1 (Esophageal Adenocarcinoma)
In short: (§1)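 Bliss excess equals the observed combination effect minus the expected value EA + EB − EA·EB, where EA and EB are the effects of each agent alone. Combination Emax is the second-highest inhibition within the matrix. Inhibition was scaled from CellTiter-Glo 2.0 luminescence, with 0 set by vehicle wells and 1 by blank wells, after 72 hours of two-drug dosing of cells plated in 1536-well plates.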

GAMG (Glioblastoma) = test system: GAMG (Glioblastoma)
In short: as §1

[2] = test system: OVCAR-5 (Ovarian Carcinoma)
In short: as §1

[3] = test system: SNU-449 (Hepatocellular Carcinoma)
In short: as §1

[4] = test system: SNU-16 (Gastric Carcinoma)
In short: as §1

A673 (Ewing's Sarcoma) = test system: A673 (Ewing's Sarcoma)
In short: as §1

[5] = test system: HH (T-Cell Non-Hodgkin's Lymphoma)
In short: as §1

[6] = test system: LNZTA3WT4 (Low Grade Glioma)
In short: as §1

[7] = test system: BE-13 (T-Lymphoblastic Leukemia)
In short: as §1

[8] = test system: YAPC (Pancreatic Carcinoma)
In short: as §1

[9] = test system: FTC-133 (Thyroid Gland Carcinoma)
In short: as §1

[10] = test system: ALL-PO (B-Lymphoblastic Leukemia)
In short: as §1

[11] = test system: NCI-H209 (Small Cell Lung Carcinoma)
In short: as §1

[12] = test system: OE21 (Esophageal Squamous Cell Carcinoma)
In short: as §1

[13] = test system: SW1573 (Lung Adenocarcinoma)
In short: as §1

NCI-H2052 (Mesothelioma) = test system: NCI-H2052 (Mesothelioma)
In short: as §1

[14] = test system: L-428 (Hodgkin's Lymphoma)
In short: as §1

[15] = test system: NCI-H1568 (Lung Adenocarcinoma)
In short: as §1

[16] = test system: KMRC-20 (Kidney Carcinoma)
In short: as §1

[17] = test system: LS-123 (Colorectal Carcinoma)
In short: as §1

Row | Structure (SMILES) | Bliss excess [1] | Bliss excess (GAMG (Glioblastoma)) | Bliss excess [2] | Bliss excess [3] | Bliss excess [4] | Bliss excess (A673 (Ewing's Sarcoma)) | Bliss excess [5] | Bliss excess [6] | Bliss excess [7] | Bliss excess [8] | Bliss excess [9] | Bliss excess [10] | Bliss excess [11] | Bliss excess [12] | Bliss excess [13] | Bliss excess (NCI-H2052 (Mesothelioma)) | Bliss excess [14] | Bliss excess [15] | Bliss excess [16] | Bliss excess [17]
1 | CN(CCO)CC[C@H](CSc1ccccc1)Nc1ccc(S(=O)(=O)NC(=O)c2ccc(N3CCC([C@@H](O)c4ccccc4-c4ccc(Cl)cc4)CC3)cc2)cc1S(=O)(=O)C(F)(F)F [AZD4320] + CC(=O)O[C@H]1C(=O)[C@@]2(C)[C@H]([C@H](OC(=O)c3ccccc3)[C@]3(O)C[C@H](OC(=O)[C@H](O)[C@@H](NC(=O)c4ccccc4)c4ccccc4)C(C)=C1C3(C)C)[C@]1(OC(C)=O)CO[C@@H]1C[C@@H]2O [Paclitaxel] (first compound max 1 µM, 7x7, partner max 3 µM) | 0.0811 | 0.095 | 0.0576 | -0.0162 | 0.0287 | 0.0654 | 0.254 | 0.0016 | 0.0037 | -0.0321 |  |  |  |  |  |  |  |  |  | 
2 | CN(CCO)CC[C@H](CSc1ccccc1)Nc1ccc(S(=O)(=O)NC(=O)c2ccc(N3CCC([C@@H](O)c4ccccc4-c4ccc(Cl)cc4)CC3)cc2)cc1S(=O)(=O)C(F)(F)F [AZD4320] + CCN(CCO)CCCOc1ccc2c(Nc3cc(CC(=O)Nc4cccc(F)c4)[nH]n3)ncnc2c1 [AZD2811] (first compound max 1 µM, 7x7, partner max 1 µM) | -0.0149 | 0.119 | -0.0458 | -0.0649 | 0.0638 | 0.0819 | -0.0135 | -0.0224 | 0.0663 | -0.0464 | 0.0384 | -0.009 | 0.184 | -0.0212 | 0.004 | -0.0462 | 0.0083 | -0.0102 | 0.0024 | 
3 | CN(CCO)CC[C@H](CSc1ccccc1)Nc1ccc(S(=O)(=O)NC(=O)c2ccc(N3CCC([C@@H](O)c4ccccc4-c4ccc(Cl)cc4)CC3)cc2)cc1S(=O)(=O)C(F)(F)F [AZD4320] + C[C@@H]1COCCN1C2=NC(=NC(=C2)C3(CC3)[S@](=N)(=O)C)C4=C5C=CNC5=NC=C4 [AZD6738] (first compound max 1 µM, 7x7, partner max 10 µM) | 0.0036 | -0.0756 | -0.0282 | -0.0721 | 0.0219 | 0.028 | -0.0454 | -0.0029 | -0.0251 | -0.0423 | 0.0324 | 0.0019 | 0.0545 | 0.0053 | -0.0216 | -0.0021 | -0.0103 | -0.0135 | -0.0289 | 
4 | CN(CCO)CC[C@H](CSc1ccccc1)Nc1ccc(S(=O)(=O)NC(=O)c2ccc(N3CCC([C@@H](O)c4ccccc4-c4ccc(Cl)cc4)CC3)cc2)cc1S(=O)(=O)C(F)(F)F [AZD4320] + Cc1cc2ncnn2cc1Nc1ncc2c(n1)n(C1CCOCC1)c(=O)n2C [AZD7648] (first compound max 1 µM, 7x7, partner max 10 µM) | -0.0461 | -0.0633 | -0.0452 | -0.0811 | 0.0237 | 0.0069 | -0.0459 | -0.0358 | 0.0028 | -0.0465 | -0.0097 | 0.0085 | 0.0477 | -0.0187 | -0.0592 | -0.0451 | -0.0021 | -0.0325 | -0.0393 | 
5 | CN(CCO)CC[C@H](CSc1ccccc1)Nc1ccc(S(=O)(=O)NC(=O)c2ccc(N3CCC([C@@H](O)c4ccccc4-c4ccc(Cl)cc4)CC3)cc2)cc1S(=O)(=O)C(F)(F)F [AZD4320] + Nc1ccn([C@@H]2O[C@H](CO)[C@@H](O)C2(F)F)c(=O)n1 [Gemcitabine] (first compound max 1 µM, 7x7, partner max 0.3 µM) | 0.0074 | 0.103 | -0.0486 | -0.0558 | 0.0538 | 0.0335 | -0.0085 | -0.0125 | -0.0285 | 0.011 |  |  |  |  |  |  |  |  |  | 
6 | COc1nnc2ccc(N3CCC(c4ccc(OCCN5CCN(C)C(=O)[C@H]5C)cc4)CC3)nn12 [AZD5153] + CN(CC[C@H](CSC1=CC=CC=C1)NC2=C(C=C(C=C2)S(=O)(=O)NC(=O)C3=CC=C(C=C3)N4CCC(CC4)[C@H](C5=CC=CC=C5C6=CC=C(C=C6)Cl)O)S(=O)(=O)C(F)(F)F)CCO [AZD4320] (first compound max 1 µM, 7x7, partner max 1 µM) |  |  |  |  |  |  |  |  |  |  | 0.112 | 0.0079 | 0.01 | 0.0129 | 0.089 | -0.0348 | -0.0432 | -0.044 | 0.0384 | 
7 | Cc1cc2ncnn2cc1Nc1ncc2c(n1)n(C1CCOCC1)c(=O)n2C [AZD7648] + C=CCn1c(=O)c2cnc(Nc3ccc(N4CCN(C)CC4)cc3)nc2n1-c1cccc(C(C)(C)O)n1 [AZD1775] (first compound max 10 µM, partner max 1 µM) | -0.048 | -0.005 | -0.0038 | 0.0041 | -0.0345 | -0.0306 | -0.0461 | -0.0049 | 0.0217 | 0.0325 | 0.0069 | 0.0488 | -0.0177 | -0.0013 | -0.0452 | -0.0039 | 0.0144 | -0.0763 | -0.0164 | -0.079
8 | Cc1cc2ncnn2cc1Nc1ncc2c(n1)n(C1CCOCC1)c(=O)n2C [AZD7648] + CCN(CCO)CCCOc1ccc2c(Nc3cc(CC(=O)Nc4cccc(F)c4)[nH]n3)ncnc2c1 [AZD2811] (first compound max 10 µM, 7x7, partner max 1 µM) | -0.002 | 0.0192 | 0.043 | 0.0117 | 0.0793 | -0.0672 | -0.0598 | 0.0063 | -0.066 | 0.0032 | 0.0066 | 0.0236 | 0.0054 | 0.0379 | 0.0327 | -0.0104 | 0.0783 | -0.0172 | 0.026 | -0.0172
9 | CC(=O)c1c(C)c2cnc(Nc3ccc(N4CCNCC4)cn3)nc2n(C2CCCC2)c1=O [Palbociclib] + CN(CC[C@H](CSC1=CC=CC=C1)NC2=C(C=C(C=C2)S(=O)(=O)NC(=O)C3=CC=C(C=C3)N4CCC(CC4)[C@H](C5=CC=CC=C5C6=CC=C(C=C6)Cl)O)S(=O)(=O)C(F)(F)F)CCO [AZD4320] (first compound max 10 µM, 7x7, partner max 1 µM) |  |  |  |  |  |  |  |  |  |  | -0.0778 | 0.0126 | 0.0266 | 0.0269 | -0.0486 | -0.0159 | -0.0128 | -0.0747 | -0.0504 | 
10 | N#Cc1cnc(Nc2cc(NC[C@H]3CNCCO3)c(C(F)(F)F)cn2)cn1 [SRA737] + C=CCn1c(=O)c2cnc(Nc3ccc(N4CCN(C)CC4)cc3)nc2n1-c1cccc(C(C)(C)O)n1 [AZD1775] (first compound max 10 µM, partner max 1 µM) | 0.0021 | 0.0904 | 0.0274 | 0.0354 | 0.109 | 0.0914 | 0.0569 | -0.0108 | 0.0657 | 0.0265 |  |  |  |  |  |  |  |  |  | -0.0025
11 | N#Cc1cnc(Nc2cc(NC[C@H]3CNCCO3)c(C(F)(F)F)cn2)cn1 [SRA737] + CCc1c2c(nc3ccc(O)cc13)-c1cc3c(c(=O)n1C2)COC(=O)[C@]3(O)CC [SN-38] (first compound max 10 µM, 7x7, partner max 0.3 µM) | 0.0142 | 0.0754 | -0.0048 | 0.0341 | 0.0524 | -0.0511 | 0.017 | -0.002 | 0.057 | -0.041 |  |  |  |  |  |  |  |  |  | -0.0163
12 | N#Cc1cnc(Nc2cc(NC[C@H]3CNCCO3)c(C(F)(F)F)cn2)cn1 [SRA737] + Nc1ccn([C@@H]2O[C@H](CO)[C@@H](O)C2(F)F)c(=O)n1 [Gemcitabine] (first compound max 10 µM, 7x7, partner max 0.3 µM) | 0.0075 | 0.182 | 0.0627 | 0.0307 | -0.103 | 0.0343 | 0.0878 | 0.0301 | 0.0965 | 0.0439 |  |  |  |  |  |  |  |  |  | 0.0948
13 | C[C@@H](c1ccc2nccn2c1)n1nnc2ncc(-c3cnn(C)c3)nc21 [Savolitinib] + CN(CC[C@H](CSC1=CC=CC=C1)NC2=C(C=C(C=C2)S(=O)(=O)NC(=O)C3=CC=C(C=C3)N4CCC(CC4)[C@H](C5=CC=CC=C5C6=CC=C(C=C6)Cl)O)S(=O)(=O)C(F)(F)F)CCO [AZD4320] (first compound max 1 µM, 7x7, partner max 1 µM) |  |  |  |  |  |  |  |  |  |  | -0.056 | -0.0307 | -0.0172 | -0.043 | -0.0657 | -0.0147 | -0.0726 | -0.0571 | -0.0048 | 
